Measurements published in US8431588B2, “Cyclopropyl polymerase inhibitors” (Janssen Products, LP, priority 2008, dated 2013).
Where two headings read alike, the source gives them in different places.

Legend:
[1] = test system: HCV type 1b replicon in Huh-7 luc/neo (Huh-Luc) cells; assay: HCV replicon assay (Huh-Luc, luciferase readout); type: cell-based; details: Hepatitis C virus, Huh-7, 72 h, read-out: EC50 (replicon)
Excerpt: The compounds of formula I were examined for activity in the inhibition of HCV RNA replication in a cellular assay aimed at identifying compounds that inhibit a HCV functional cellular replicating cell line, also known as HCV replicons. The cellular assay was based on a bicistronic expression construct, as described by Lohmann et al. (1999), Science vol. 285 pp. 110-113 with modifications described by Krieger et al. (2001), Journal of Virology 75: 4614-4624, in a multi-target screening strategy.
The assay utilized the stably transfected cell line Huh-7 luc/neo (hereafter referred to as Huh-Luc). This cell line harbors an RNA encoding a bicistronic expression construct comprising the wild type NS3-NS5B regions of HCV type 1b translated from an Internal Ribosome Entry Site (IRES) from encephalomyocarditis virus (EMCV), preceded by a reporter portion (FfL-luciferase), and a selectable marker portion (neo^R, neomycine phosphotransferase). The construct is bordered by 5′ and 3′ NTRs (non-translated regions) from HCV type 1b. Continued culture of the replicon cells in the presence of G418 (neo^R) is dependent on the replication of the HCV RNA. The stably transfected replicon cells that express HCV RNA, which replicates autonomously and to high levels, encoding inter alia luciferase, were used for screening the antiviral compounds.
The replicon cells were plated in 384 well plates in the presence of the test and control compounds which were added in various concentrations. Following an incubation of three days, HCV replication was measured by assaying luciferase activity (using standard luciferase assay substrates and reagents and a Perkin Elmer ViewLux™ ultraHTS microplate imager). Replicon cells in the control cultures have high luciferase expression in the absence of any inhibitor. The inhibitory activity of the compound on luciferase activity was monitored on the Huh-Luc cells, enabling a dose-response curve for each test compound. EC50 values were then calculated, which value represents the amount of the compound required to decrease the level of detected luciferase activity by 50%, or more specifically, the ability of the genetically linked HCV replicon RNA to replicate.

[2] = test system: wild type human immunodeficiency virus (HIV) strain IIIB; assay: microbe, parasite or virus in culture; type: cell-based, HIV-1; details: read-out: EC50 (IIIB)
Experimental: Compounds of the invention were tested for their potency against wild type human immunodeficiency virus (HIV). Antiviral activity was evaluated using a cellular assay performed according to the following procedure. The human T-cell line MT4 was engineered with Green Fluorescent Protein (GFP) and a HIV-specific promoter, HIV-1 long terminal repeat (LTR). This cell line, designated MT4 LTR-EGFP, can be used for the in vitro evaluation of anti-HIV activity of investigational compounds. In HIV-1 infected cells, the Tat protein is produced, which upregulates the LTR promotor and eventually leads to stimulation of the GFP reporter production, allowing to measure ongoing HIV-infection fluorometrically. Effective concentration values such as 50% effective concentration (EC50) can be determined and are usually expressed in μM. An EC50 value is defined as the concentration of test compound that reduces the fluorescence of HIV-infected cells by 50%. Monitoring of HIV-1 infection was done using a scanning microscope. Image analysis allows very sensitive detection of viral infection. Measurements were done before cell necrosis, which usually takes place about five days after infection, in particular measurements were performed three days after infection. The column IIIB in the table list the EC50 values against the wild type strain IIIB.

[3] = Cellular toxicity in the Huh7-CMV-Luc replicon assay; type: cell-based; details: human; Huh7-CMV-Luc cells, three days incubation, Luc activity
Experimental: Cellular toxicity was determined in the Huh7-CMV-Luc replicon assay. Replicon cells (2500 cells/well), stably transformed with a luciferase reporter gene under control of the cytomegalovirus (CMV) constitutive promotor, were cultured in the presence or absence of test compound concentrations. After three days of incubation at 37° C. in a humidified 5% CO2 atmosphere, cell proliferation was quantified by measuring the Luc activity, and expressed as CC50 values (cytotoxicity, 50% inhibitory concentration of cell growth). Tests were performed in 384-well plates.

[4] = Huh-Luc replicon cells, three days incubation, luciferase activity
[5] = Human immunodeficiency virus 1, 72 h, wild type strain IIIB, MT4 LTR-EGFP cells, three days after infection

Compound | EC50 [1, 4] [µM] | EC50 [2, 5] [µM] | CC50 at 3 days [3] [µM] | EC50 [1] [µM] | EC50 ([2]; Human immunodeficiency virus 1, IIIB, 72 h) [µM]
Nc1ccn([C@@H]2O[C@H](CO)[C@@H](O)C23CC3)c(=O)n1 [Compound 1, 4-Amino-1-(7-hydroxy-6-hydroxymethyl-5-oxa-spiro[2.4]hept-4-yl)-1H-pyrimidin-2-one] | 8.4 | > 98 | > 98 |  | 
C[C@H](NP(=O)(OC[C@H]1O[C@@H](n2ccc(N)nc2=O)C2(CC2)[C@@H]1O)Oc1ccccc1)C(=O)OCc1ccccc1 (stereo partly drawn) [Compound 2a, (2S)-benzyl 2-((((4R,6R,7S)-4-(4-amino-2-oxopyrimidin-1(2H)-yl)-7-hydroxy-5-oxaspiro[2.4]heptan-6-yl)methoxy)((phenoxy)phosphoryl)amino)propanoate] | 15.3 | > 98 | > 98 |  | 
C[C@H](NP(=O)(OC[C@H]1O[C@@H](n2ccc(N)nc2=O)C2(CC2)[C@@H]1O)Oc1ccc(Cl)cc1)C(=O)OCc1ccccc1 (stereo partly drawn) [Compound 2b, (2S)-benzyl 2-((((4R,6R,7S)-4-(4-amino-2-oxopyrimidin-1(2H)-yl)-7-hydroxy-5-oxaspiro[2.4]heptan-6-yl)methoxy)(4-chlorophenoxy)phosphorylamino)propanoate] | 26.3 | > 98 | > 98 |  | 
CCOC(=O)[C@H](Cc1ccccc1)NP(=O)(OC[C@H]1O[C@@H](n2ccc(N)nc2=O)C2(CC2)[C@@H]1O)Oc1ccccc1 (stereo partly drawn) [Compound 2c, (2S)-ethyl 2-((((4R,6R,7S)-4-(4-amino-2-oxopyrimidin-1(2H)-yl)-7-hydroxy-5-oxaspiro[2.4]heptan-6-yl)methoxy)(phenoxy)phosphorylamino)-3-phenylpropanoate] |  | > 98 | > 98 | ≥ 98 | 
COC(=O)[C@H](C)NP(=O)(OC[C@H]1O[C@@H](n2ccc(N)nc2=O)C2(CC2)[C@@H]1O)Oc1ccccc1 (stereo partly drawn) [Compound 2d, (2S)-methyl 2-((((4R,6R,7S)-4-(4-amino-2-oxopyrimidin-1(2H)-yl)-7-hydroxy-5-oxaspiro[2.4]heptan-6-yl)methoxy)(phenoxy)phosphorylamino)propanoate] | 63.1 | > 98 | > 98 |  | 
CC(C)C(=O)OC[C@H]1O[C@@H](n2ccc(N)nc2=O)C2(CC2)[C@@H]1OC(=O)C(C)C [Compound 3, (4R,6R,7S)-4-(4-amino-2-oxopyrimidin-1(2H)-yl)-6-(isobutyryl-oxymethyl)-5-oxaspiro[2.4]heptan-7-yl isobutyrate] | 27.2 | > 98 | > 98 |  | 
CC(C)C(=O)OC[C@H]1O[C@@H](n2ccc(N)nc2=O)C2(CC2)[C@@H]1O [Compound 4, ((4R,6R,7S)-4-(4-amino-2-oxopyrimidin-1(2H)-yl)-7-hydroxy-5-oxaspiro[2.4]heptan-6-yl)methyl isobutyrate] | 9.2 |  | > 98 |  | > 98
CC(C)C(=O)O[C@@H]1[C@@H](CO)O[C@@H](n2ccc(N)nc2=O)C12CC2 [Compound 5, (4R,6R,7S)-4-(4-amino-2-oxopyrimidin-1(2H)-yl)-6-(hydroxymethyl)-5-oxaspiro[2.4]heptan-7-yl isobutyrate] | 42.5 | > 98 | > 98 |  | 
